Molecular target: human FXR (NR1H4) (Homo sapiens (Human), UniProt Q96RI1)
Assay: Human FXR (NR1H4) Assay (Gal4 promoter driven luciferase reporter, CHO cells)
Format: cell-based
Conditions: CHO reporter cells expressing human NR1H4; for EC50: 22 hours incubation, potency ranges; for Efficacy (%): normalized to CDCA set as 100%
Source text: Human FXR (NR1H4) Assay Determination of a ligand mediated Gal4 promoter driven transactivation to quantify ligand binding mediated activation of FXR. FXR Reporter Assay kit purchased from Indigo Bioscience (Catalogue number: IB00601) to determine the potency and efficacy of compound developed by Enanta that can induce FXR activation. The principle application of this reporter assay system is to quantify functional activity of human FXR. The assay utilizes non-human mammalian cells, CHO (Chinese hamster ovary) cells engineered to express human NR1H4 protein (referred to as FXR). Reporter cells also incorporate the cDNA encoding beetle luciferase which catalyzes the substrates and yields photon emission. Luminescence intensity of the reaction is quantified using a plate-reading luminometer, Envision. Reporter Cells include the luciferase reporter gene functionally linked to an FXR responsive promoter. Thus, quantifying changes in luciferase expression in the treated reporter cells provides a sensitive surrogate measure of the changes in FXR activity. […] The assay is according to the manufacturer's instructions. In brief, the assay was performed in white, 96 well plates using final volume of 100 μl containing cells with different doses of compounds. Retrieve Reporter Cells from −80° C. storage. Perform a rapid thaw of the frozen cells by transferring a 10 ml volume of 37° C. cell recovery medium into the tube of frozen cells. Recap the tube of Reporter Cells and immediately place it in a 37° C. water bath for 5-10 minutes. Retrieve the tube of Reporter Cell Suspension from the water bath. Sanitize the outside surface of the tube with a 70% alcohol swab, and then transfer it into the cell culture hood. Dispense 90 μl of cell suspension into each well of the 96-well Assay Plate. Transfer the plate into 37° C. incubator, allowing the cells adherent to the bottom of the well. Dilute compounds in Dilution Plate (DP), and administrate to cells at Assay Plate (AP). DMSO content of the samples was kept at 0.2%. Cells were incubated for additional 22 hours before luciferase activities were measured. Thirty minutes before intending to quantify FXR activity, remove Detection Substrate and Detection Buffer from the refrigerator and place them in a low-light area so that they may equilibrate to room temperature. Remove the plate's lid and discard all media contents by ejecting it into an appropriate waste container. Gently tap the inverted plate onto a clean absorbent paper towel to remove residual droplets. Cells will remain tightly adhered to well bottoms. Add 100 μl of luciferase detection reagent to each well of the assay plate. Allow the assay plate to rest at room temperature for at least 5 minutes following the addition of LDR. Set the instrument (Envision) to perform a single 5 second “plate shake” prior to reading the first assay well. Read time may be 0.5 second (500 mSec) per well.

Chain of human FXR (NR1H4) (Q96RI1 whole entry, the tested form may be a part): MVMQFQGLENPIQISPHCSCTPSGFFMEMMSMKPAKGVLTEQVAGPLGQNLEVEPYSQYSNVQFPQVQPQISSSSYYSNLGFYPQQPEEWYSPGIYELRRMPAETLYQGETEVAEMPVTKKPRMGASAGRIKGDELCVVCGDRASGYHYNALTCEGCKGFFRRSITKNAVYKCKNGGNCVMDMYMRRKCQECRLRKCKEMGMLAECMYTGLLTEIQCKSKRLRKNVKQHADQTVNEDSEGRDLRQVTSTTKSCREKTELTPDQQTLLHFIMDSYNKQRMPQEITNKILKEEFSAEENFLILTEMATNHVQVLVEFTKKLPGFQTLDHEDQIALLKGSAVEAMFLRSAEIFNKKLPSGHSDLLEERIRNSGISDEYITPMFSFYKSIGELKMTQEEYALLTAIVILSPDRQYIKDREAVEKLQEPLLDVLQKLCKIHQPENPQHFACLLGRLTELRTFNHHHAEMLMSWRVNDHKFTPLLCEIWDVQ

Row | EC50 | Efficacy (%) | SMILES
1 | 100 to 1000 nM | 145% | CN(Cc1ccc(C(=O)NS(=O)(=O)C2CC2)cc1)c1ccc(OCc2c(-c3c(Cl)cccc3Cl)noc2C2CC2)nc1C(F)(F)F [Example 1]
2 | 1000 to 10000 nM | 108% | CN(Cc1ccc(C(=O)NS(=O)(=O)c2ccc(C(C)(C)C)cc2)cc1)c1ccc(OCc2c(-c3c(Cl)cccc3Cl)noc2C2CC2)nc1C(F)(F)F [Example 2]
3 |  | 153% | CN(Cc1ccc(C(=O)NS(=O)(=O)N(C)C)cc1)c1ccc(OCc2c(-c3c(Cl)cccc3Cl)noc2C2CC2)nc1C(F)(F)F [Example 3]
